According to the supplement of paper PMC10307832:

Key:
Experiment in all cases: relative viability (nuclei count vs DMSO), 5 days (fraction); higher = more cells survive
[1] = compound: CC1=CN=C(N=C1C2=CNC(=C2)C(=O)N[C@H](CO)C3=CC(=CC=C3)Cl)NC4=C(C=C(C=C4)F)Cl [VX-11e] + Cc1cc(Nc2cc(N3CCN(C)CC3)nc(Sc3ccc(NC(=O)C4CC4)cc3)n2)n[nH]1 [Tozasertib] (partner 0.1 µM)
Procedure, shortened: (§1)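 For relative viability, nuclei counts in treated wells were divided by those in vehicle wells. Lung cancer cell lines had been pin-tool dosed in 1536-well plates the day after seeding and cultured for 5 days, then fixed and stained in one step (final 0.05% Triton X-100, 1% formaldehyde, 1 ug/ml Hoechst) and imaged at 4×. Doses were one drug alone or a fixed anchor-drug dose plus five library-drug doses (not always all listed) in √10 steps, and values are duplicate-plate medians.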

[2] = compound: CC1=CN=C(N=C1C2=CNC(=C2)C(=O)N[C@H](CO)C3=CC(=CC=C3)Cl)NC4=C(C=C(C=C4)F)Cl [VX-11e] + COc1cc2c(Oc3ccc(NC(=O)C4(C(=O)Nc5ccc(F)cc5)CC4)cc3F)ccnc2cc1OCCCN1CCOCC1 [Foretinib] (partner 0.25 µM)
Procedure, shortened: as §1

[3] = compound: CC1=CN=C(N=C1C2=CNC(=C2)C(=O)N[C@H](CO)C3=CC(=CC=C3)Cl)NC4=C(C=C(C=C4)F)Cl [VX-11e] + NC(=O)Nc1cc(-c2cccc(F)c2)sc1C(=O)N[C@H]1CCCNC1 [AZD7762] (partner 0.2 µM)
Procedure, shortened: as §1

[4] = compound: CC1=CN=C(N=C1C2=CNC(=C2)C(=O)N[C@H](CO)C3=CC(=CC=C3)Cl)NC4=C(C=C(C=C4)F)Cl [VX-11e] + CCNC(=O)c1noc(-c2cc(C(C)C)c(O)cc2O)c1-c1ccc(CN2CCOCC2)cc1 [Luminespib] (partner 0.01 µM)
Procedure, shortened: as §1

Cell Line	relative viability ([1]; first compound 0.04 µM)	relative viability ([1]; first compound 0.1265 µM)	relative viability ([1]; first compound 0.4 µM)	relative viability ([1]; first compound 1.265 µM)	relative viability ([1]; first compound 4 µM)	relative viability ([2]; first compound 0.04 µM)	relative viability ([2]; first compound 0.1265 µM)	relative viability ([2]; first compound 0.4 µM)	relative viability ([2]; first compound 1.265 µM)	relative viability ([2]; first compound 4 µM)	relative viability ([3]; first compound 0.04 µM)	relative viability ([3]; first compound 0.1265 µM)	relative viability ([3]; first compound 0.4 µM)	relative viability ([3]; first compound 1.265 µM)	relative viability ([3]; first compound 4 µM)	relative viability ([4]; first compound 0.04 µM)	relative viability ([4]; first compound 0.1265 µM)	relative viability ([4]; first compound 0.4 µM)	relative viability ([4]; first compound 1.265 µM)	relative viability ([4]; first compound 4 µM)
LCLC-97TM1	0.21	0.223	0.2	0.166	0.179	0.955	0.811	0.826	0.455	0.332	0.259	0.172	0.23	0.175	0.14	0.781	0.693	0.615	0.393	0.263
LCLC-103H	0.467	0.412	0.48	0.3	0.4	0.867	0.694	0.858	0.656	0.67	0.766	0.71	0.801	0.606	0.654	0.98	0.698	1.03	0.83	0.785
LK-2	0.148	0.182	0.22	0.185	0.159	1.1	1.3	1.18	0.643	0.817	0.299	0.388	0.326	0.316	0.294	0.197	0.198	0.193	0.182	0.183
LOU-NH91	0.807	0.647	0.384	0.593	0.618	0.92	0.896	0.577	0.94	0.782	0.746	0.805		0.8	0.725	0.394	0.396	0.283	0.341	0.312
LU99A	0.25	0.246	0.269	0.244	0.22	0.806	0.729	0.894	0.805	0.362	0.244	0.37	0.142	0.18	0.195	0.3	0.249	0.209	0.336	0.172
LXF-289	0.223	0.177	0.222	0.189	0.141	1	0.877	0.88	0.85	0.637	1.15	1.12		0.805	0.686	0.641	0.592	0.659	0.656	0.407
NCI-H23	0.321	0.322		0.216	0.168	0.896	0.984		0.767	0.472	0.208	0.231	0.167	0.176	0.119	0.237	0.225	0.237	0.182	0.185
NCI-H322M	0.444	0.444	0.352	0.453	0.343	0.924	0.748	0.981	0.763	0.659	0.469	0.726	0.506	0.514	0.448	0.846	0.687	0.303	0.658	0.606
NCI-H358	0.113	0.0919	0.102	0.096	0.0812	0.354	0.541	0.347	0.434	0.147	0.594	0.499		0.445	0.228		0.312	0.208	0.464	0.117
NCI-H441	0.753	0.55		0.585	0.453	1.14	1.2		1.05	0.937	1.23	1.12		1.17	1.05	0.345	0.31		0.459	0.323
NCI-H460	0.678	0.268	0.0898	0.031	0.0316	0.872	0.984	0.896	0.872	0.189	0.561	0.54		0.646	0.378	0.0317	0.0379	0.0305	0.0413	0.0238
NCI-H596	0.912	0.815	0.845	0.758	0.446	0.854	0.952	0.775	0.79	0.506	1.03	0.895	1.01	0.748	0.778	0.898	0.982	0.699	0.755	0.765
NCI-H647	0.254	0.301	0.246	0.205	0.0828	1.26	1.12	1.19	1.05	0.405	0.347	0.573		0.426	0.215	0.248	0.329	0.118	0.24	0.111
NCI-H650	0.828	0.648	0.683	0.509	0.511	1.09	1.04	1.1	0.993	1.1	1.08	0.935	0.964	0.994	0.553	0.749	0.8	0.606	0.772	0.677
NCI-H727	0.66	0.48	0.45	0.429	0.325	0.76	0.775	0.846	0.55	0.302	0.519	0.616	0.652	0.476	0.385	0.293	0.294	0.291	0.312	0.371
NCI-H838	0.233	0.279	0.263	0.213	0.193	1.03	1.11	1.05	1.1	0.779	0.784	0.962	0.728	0.977	0.834	0.413	0.273	0.207	0.347	0.264
